# Reference: ChEMBL document CHEMBL5096200, “A short survey of dengue protease inhibitor development in the past 6 years (2015-2020) with an emphasis on similarities between DENV and SARS-CoV-2 proteases” (Bioorg Med Chem, 2021)
# Counter-ions that a name gives are not always drawn. Positions of bridges follow the written chain, without caps; N, C: chain ends. Non-standard residues stand in square brackets, D forms with d. Residues, ends and D or L forms follow the SMILES beside them. NBnAla = C[C@H](NCc1ccccc1)C(=O)O
# What was measured:
# [1] = Binding affinity to wildtype DENV3 protease assessed as inhibition constant using [Ac-[D-EDANS]KRRSWP[K-DABCYL]-AMIDE] as substrate by FRET-based enzymatic assay; design: species or system dengue virus type 3
# [2] = tested on: dengue virus type 2; assay: Antiviral activity against Dengue virus 2 infected in african green monkey Vero cells assessed as reduction in viral titer; assay type: functional, organism-based
# [3] = target: T1, Genome polyprotein (dengue virus type 2, UniProt P29990); assay: Inhibition of DENV2 NS2B-NS3 protease using […] as substrate preincubated for 10 mins followed by substrate addition and incubated for 60 mins by fluorescence spectroscopy assay
# T1 sequence (P29990 1346-1475 limits assumed): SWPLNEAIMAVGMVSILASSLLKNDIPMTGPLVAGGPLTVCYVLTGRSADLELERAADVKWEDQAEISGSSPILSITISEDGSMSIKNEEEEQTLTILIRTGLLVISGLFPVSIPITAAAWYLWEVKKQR
# T1 sequence (P29990 1476-2093 limits assumed): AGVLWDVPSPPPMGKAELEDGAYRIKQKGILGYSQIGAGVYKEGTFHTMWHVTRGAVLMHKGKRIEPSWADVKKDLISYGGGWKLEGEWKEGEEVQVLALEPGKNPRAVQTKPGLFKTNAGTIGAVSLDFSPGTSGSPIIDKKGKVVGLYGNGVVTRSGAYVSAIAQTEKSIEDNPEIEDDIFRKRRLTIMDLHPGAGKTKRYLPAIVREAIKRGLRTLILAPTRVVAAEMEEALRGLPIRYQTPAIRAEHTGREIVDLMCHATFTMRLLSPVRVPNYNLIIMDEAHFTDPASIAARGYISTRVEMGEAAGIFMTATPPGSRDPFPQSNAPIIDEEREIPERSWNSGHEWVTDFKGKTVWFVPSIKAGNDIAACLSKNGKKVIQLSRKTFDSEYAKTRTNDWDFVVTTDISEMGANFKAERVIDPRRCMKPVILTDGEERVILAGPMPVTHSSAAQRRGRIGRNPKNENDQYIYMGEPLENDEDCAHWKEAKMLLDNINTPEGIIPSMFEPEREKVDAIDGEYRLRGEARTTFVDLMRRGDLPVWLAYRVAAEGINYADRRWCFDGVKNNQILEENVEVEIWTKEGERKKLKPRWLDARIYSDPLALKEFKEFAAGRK
# [4] = target: T1, Genome polyprotein; assay: Inhibition of DENV2 NS2B-NS3 protease using Boc-Gly-Arg-Arg-MCA as substrate by fluorescence assay
# [5] = target: T1, Genome polyprotein; assay: Inhibition of DENV2 NS2B-NS3 protease
# [6] = target: T1, Genome polyprotein; assay: Binding affinity to DENV2 NS2B/NS3 protease assessed as inhibition constant
# [7] = tested on: dengue virus type 2; assay: Antiviral activity against DENV2; assay type: functional, organism-based
# [8] = target: T1, Genome polyprotein; assay: Inhibition of DENV2 NS2B-NS3 protease using Boc-Gly-Arg-Arg-7-amino-4-methylcoumarin as substrate incubated for 10 mins by fluorometric assay
# [9] = Inhibition of West Nile Virus NS2B (residues 1393 to 1440 )/NS3pro (residues 1476 to 1687) protease expressed in Escherichia coli BL21 (DE3) using e Pyr- RTKR-AMC as substrate preincubated for 30 mins followed by substrate addition and incubated for 90 mins by fluorescence spectrophotometry assay
# [10] = Permeability of the compound at pH 7.4; assay type: ADME; settings: PAMPA, read-out: permeability
# [11] = target: T1, Genome polyprotein; assay: Inhibition of DENV2 NS2B-NS3 protease using fluorophore-tagged Bz-nKRR-AMC as substrate preincubated for 30 mins followed by substrate addition measured after 90 mins by microplate reader analysis
# [12] = Inhibition of DENV2 pro; design: species or system dengue virus type 2
molecule,measurement,setting,value
CC[C@H](C)[C@@H]1NC(=O)[C@H](CCCNC(=N)N)NC(=O)[C@H](C)NC(=O)[C@H](CCCCN)NC(=O)[C@@H](NC(=O)[C@@H]2CCCN2)CSSC[C@@H](C(=O)N[C@@H](CCCNC(=N)N)C(=O)O)NC(=O)CNC(=O)CNC(=O)[C@H](Cc2ccc(O)cc2)NC(=O)CNC(=O)CNC(=O)[C@H]([C@@H](C)CC)NC1=O (H-PCKARIIGGYGGCR-OH; disulfide 2-13),Ki,[1],232 µM
CC[C@H](C)[C@@H]1NC(=O)[C@H](CCCNC(=N)N)NC(=O)[C@H](C)NC(=O)[C@H](CCCNC(=N)N)NC(=O)[C@@H](NC(=O)[C@@H]2CCCN2)CSSC[C@@H](C(=O)N[C@@H](C)C(=O)O)NC(=O)CNC1=O (H-PCRARIGCA-OH; disulfide 2-8),Ki,[1],101 µM
O=C(O)c1cc2sc(NC(=O)c3ccccc3Sc3ccc(C(F)(F)F)cc3)nc2cc1O,EC50,[2],0.9 µM
COc1ccc(C(=O)CN2C/C(=C/c3ccc([N+](=O)[O-])cc3)C(=O)/C(=C\c3ccc([N+](=O)[O-])cc3)C2)cc1,IC50,[3],16.2 µM
CCCCC1C(C(=O)N(C)OC)C(c2ccccc2)CCN1C(=O)OC(C)(C)C (stereo unspecified),IC50,[4],257 µM
N=C(N)Nc1ccc(OC(=O)c2ccc(NC(=N)N)cc2)cc1,Ki,[5],2 µM
same,Ki,[6],2 µM
O=C1OC2(c3ccccc31)c1cc(I)c(O)c(I)c1OC1C(I)=C(O)C(I)=CC12 (stereo unspecified),EC50,[7],1.2 µM
CC[C@H](C)[C@@H]1NC(=O)[C@H](CCCNC(=N)N)NC(=O)[C@H](C(C)C)NC(=O)[C@H](CCCNC(=N)N)NC(=O)[C@@H](NC(=O)[C@@H]2CCCN2)CSSC[C@@H](C(=O)N[C@H](C)C(=O)O)NC(=O)CNC(=O)CNC(=O)[C@H](Cc2ccc(O)cc2)NC1=O,Ki,[1],25.6 µM
COc1cc(O)c(C(=O)[C@@H]2[C@H](CC=C(C)C)C(C)=CC[C@H]2c2ccccc2)c(O)c1 [PANDURATIN A],IC50,[3],57.3 µM
CCCCC(CC)CN=C(N)N=C(N)NCCCCCCNC(N)=NC(N)=NCC(CC)CCCC (stereo unspecified) [ALEXIDINE HYDROCHLORIDE],Ki,[5],41 µM
CCN1/C(=C/C=C/c2oc3ccc4ccccc4c3[n+]2CC)Oc2ccc3ccccc3c21,IC50,[5],27 µM
CC[C@H](C)[C@@H]1NC(=O)[C@H](Cc2c[nH]c3ccccc23)NC(=O)[C@H](C)NC(=O)[C@H](CCCNC(=N)N)NC(=O)[C@@H](NC(=O)[C@@H]2CCCN2)CSSC[C@@H](C(=O)N[C@H](C)C(=O)O)NC(=O)CNC(=O)CNC(=O)[C@H](Cc2ccc(O)cc2)NC1=O,Ki,[1],145 µM
O=C(Nc1nc2ccc([N+](=O)[O-])cc2s1)c1ccccc1Sc1ccc(C(F)(F)F)cc1,EC50,[2],0.1 µM
same,IC50,[8],22 µM
CO[C@H]1C[C@H](O[C@@H]2/C(C)=C/C[C@@H]3C[C@@H](C[C@]4(CC[C@H](C)[C@@H](C5CCCCC5)O4)O3)OC(=O)[C@@H]3C=C(C)/C(=N/O)[C@H]4OC/C(=C\C=C\[C@@H]2C)[C@]43O)O[C@@H](C)[C@@H]1O [SELAMECTIN],Ki,[6],63 µM
N=C(N)NCCC[C@@H]1NC(=O)[C@H](CCCCN)NC(=O)CNC(=O)[C@@H](N)CSSC[C@@H](C(=O)O)NC(=O)[C@H](CO)NC(=O)[C@H](CCCCN)NC1=O (H-CGKRKSC-OH; disulfide 1-7),Ki,[5],1.4 µM
same,Ki,[6],1.4 µM
CC[C@H](C)[C@@H]1NC(=O)[C@H](CCCNC(=N)N)NC(=O)[C@H](C)NC(=O)[C@H](CCCNC(=N)N)NC(=O)[C@@H](NC(=O)[C@@H]2CCCN2)CSSC[C@@H](C(=O)N[C@@H](CCCNC(=N)N)C(=O)O)NC(=O)CNC(=O)CNC1=O (H-PCRARIGGCR-OH; disulfide 2-9),Ki,[1],29.7 µM
CC[C@H](C)[C@@H]1NC(=O)[C@H](CCCNC(=N)N)NC(=O)[C@H](C)NC(=O)[C@H](CCCNC(=N)N)NC(=O)[C@@H](NC(=O)c2ccccc2)CSSC[C@@H](C(=O)N[C@H](C)C(=O)O)NC(=O)CNC(=O)CNC(=O)[C@H](Cc2ccc(O)cc2)NC1=O,Ki,[1],33.2 µM
CC[C@H](C)[C@@H]1NC(=O)[C@H](CCCNC(=N)N)NC(=O)[C@H](C)NC(=O)[C@H](CCCNC(=N)N)NC(=O)[C@@H](NC(=O)[C@@H]2CCCN2)CSSC[C@@H](C(=O)N[C@@H](C)C(=O)O)NC(=O)CNC(=O)CNC(=O)[C@H](Cc2ccc(O)cc2)NC1=O (H-PCRARIYGGCA-OH; disulfide 2-10),Ki,[1],966 µM
COc1ccc(S(=O)(=O)n2nc(OC(=O)c3ccccc3)cc2N)cc1,IC50,[9],0.105 µM
CC[C@H](C)[C@@H]1NC(=O)[C@H](Cc2c[nH]c3ccccc23)NC(=O)[C@H](C)NC(=O)[C@H](CCCNC(=N)N)NC(=O)[C@@H](NC(=O)[C@@H]2CCCN2)CSSC[C@@H](C(=O)N[C@H](CCCNC(=N)N)C(=O)O)NC(=O)CNC(=O)CNC(=O)[C@H](Cc2ccc(O)cc2)NC1=O,Ki,[1],19.7 µM
CC[C@H](C)[C@@H]1NC(=O)[C@H](CCCNC(=N)N)NC(=O)[C@H](C(C)C)NC(=O)[C@H](CCCNC(=N)N)NC(=O)[C@@H](NC(=O)[C@@H]2CCCN2)CSSC[C@@H](C(=O)N[C@H](C)C(=O)O)NC(=O)CNC(=O)CNC(=O)[C@H](CC(=O)O)NC1=O,Ki,[1],35.8 µM
CC[C@H](C)[C@@H]1NC(=O)[C@H](CCCNC(=N)N)NC(=O)[C@H](C)NC(=O)[C@H](CCCNC(=N)N)NC(=O)[C@@H](NC(=O)[C@@H]2CCCN2)CSSC[C@@H](C(=O)N[C@H](C)C(=O)O)NC(=O)CNC(=O)CNC(=O)[C@H](CC(=O)O)NC1=O,Ki,[1],69.3 µM
COc1cc2nc(NC(=O)c3ccccc3Sc3ccc(C(F)(F)F)cc3)sc2cc1OC,EC50,[2],2.5 µM
CC[C@H](C)[C@@H]1NC(=O)[C@H](CCCNC(=N)N)NC(=O)[C@H](C)NC(=O)[C@H](CCCNC(=N)N)NC(=O)[C@@H](NC(=O)[C@@H]2CCCN2)CSSC[C@@H](C(=O)N[C@@H](C)C(=O)O)NC(=O)CNC(=O)[C@H](Cc2ccc(O)cc2)NC1=O (H-PCRARIYGCA-OH; disulfide 2-9),Ki,[1],468 µM
N#C/C(=C\c1ccc(O)cc1)C(N)=O,Ki,[5],35.7 µM
same,Ki,[6],35.7 µM
same,Papp,[10],8.4 ×10⁻⁶ cm/s
C[C@H](NCc1ccccc1)C(=O)N[C@@H](CCCCN)C(=O)N[C@@H](CCCNC(=N)N)C(=O)N[C@@H](CCCNC(=N)N)C(=O)O (H-[NBnAla]KRR-OH),Ki,[5],5.3 µM
same,Ki,[6],5.3 µM
COc1ccc(S(=O)(=O)n2nc(Oc3ccc(-c4ccccc4)cc3)cc2N)cc1,IC50,[11],2.9 µM
CC[C@H](C)[C@@H]1NC(=O)[C@H](CCCNC(=N)N)NC(=O)[C@H](C)NC(=O)[C@H](CCCCN)NC(=O)[C@@H](NC(=O)[C@@H]2CCCN2)CSSC[C@@H](C(=O)N[C@@H](C)C(=O)O)NC(=O)CNC(=O)CNC(=O)[C@H](Cc2ccc(O)cc2)NC(=O)CNC1=O (H-PCKARIGYGGCA-OH; disulfide 2-11),Ki,[1],377 µM
CC[C@H](C)[C@@H]1NC(=O)[C@H](CCCNC(=N)N)NC(=O)[C@H](C)NC(=O)[C@H](CCCCN)NC(=O)[C@@H](NC(=O)[C@@H]2CCCN2)CSSC[C@@H](C(=O)N[C@@H](C)C(=O)O)NC(=O)CNC(=O)CNC(=O)[C@H](Cc2ccc(O)cc2)NC1=O (H-PCKARIYGGCA-OH; disulfide 2-10),Ki,[1],14.5 µM
O=C(Nc1nc2cc(O)c(O)cc2s1)c1ccccc1Sc1ccc(C(F)(F)F)cc1,EC50,[2],> 3 µM
same,IC50,[12],3.6 µM
O=C(Nc1nc2ccc([N+](=O)[O-])cc2s1)c1cccc(Sc2ccc([N+](=O)[O-])cc2)c1,EC50,[2],0.3 µM
same,IC50,[8],26 µM
O=C(Nc1nc2ccc([N+](=O)[O-])cc2s1)c1ccccc1Sc1ccc([N+](=O)[O-])cc1,IC50,[8],34 µM
CC[C@H](C)[C@@H]1NC(=O)[C@H](CCCNC(=N)N)NC(=O)[C@H](C)NC(=O)[C@H](CCCCN)NC(=O)[C@@H](NC(=O)[C@@H]2CCCN2)CSSC[C@@H](C(=O)N[C@@H](C)C(=O)O)NC(=O)CNC(=O)CNC(=O)[C@H](Cc2ccc(O)cc2)NC(=O)CNC(=O)CNC(=O)[C@H]([C@@H](C)CC)NC1=O (H-PCKARIIGGYGGCA-OH; disulfide 2-13),Ki,[1],678 µM
N=C(N)NCCC[C@H](NC(=O)c1nccs1)C(=O)N[C@@H](CCCCN)C(=O)N[C@@H](C(N)=O)c1ccc(OCc2ccc(C(F)(F)F)cc2)cc1,IC50,[12],0.018 µM
Oc1c(C(Nc2ccccc2)c2ccccn2)ccc2cccnc12 (stereo unspecified),Ki,[5],17 µM
same,Ki,[6],17 µM
same,Papp,[10],4.12 ×10⁻⁶ cm/s
CC[C@H](C)[C@@H]1NC(=O)[C@H](CCCNC(=N)N)NC(=O)[C@H](C)NC(=O)[C@H](CCCNC(=N)N)NC(=O)[C@@H](NC(=O)[C@@H]2CCCN2)CSSC[C@@H](C(=O)N[C@@H](C)C(=O)O)NC(=O)CNC(=O)CNC1=O (H-PCRARIGGCA-OH; disulfide 2-9),Ki,[1],780 µM
N=C(N)N/N=C/c1ccc(/C=N/NC(=N)N)cc1,Ki,[5],44 µM
same,Ki,[6],44 µM
N=C(N)NCCC[C@@H](NC1NC(=O)C(N[C@H](CCCCN)C(=O)O)NC(=O)C(N2CCC[C@@H]2C(=O)O)NC(=O)C(N[C@H](Cc2ccccc2)C(=O)O)NC(=O)C(N[C@H](CO)C(=O)O)NC(=O)C(N[C@@H](Cc2ccccc2)C(=O)O)NC(=O)C(N[C@@H](CO)C(=O)O)NC(=O)[C@H](CCCCN)NC1=O)C(=O)O (stereo partly specified),IC50,[12],0.95 µM
CC[C@H](C)[C@@H]1NC(=O)[C@H](CCCNC(=N)N)NC(=O)[C@H](C)NC(=O)[C@H](CCCNC(=N)N)NC(=O)[C@@H](N)CSSC[C@@H](C(=O)N[C@@H](C)C(=O)O)NC(=O)CNC(=O)CNC(=O)[C@H](Cc2ccc(O)cc2)NC(=O)CNC1=O (H-CRARIGYGGCA-OH; disulfide 1-10),Ki,[1],145 µM
Cc1c(O)cccc1C(=O)NC(CSc1ccccc1)C(O)CN1CC2CCCCC2C[C@H]1C(=O)NC(C)(C)C (stereo partly specified),EC50,[7],3.5 µM
O=C1/C(=C\c2ccc([N+](=O)[O-])cc2)CN(CC(=O)c2ccc(F)cc2)C/C1=C/c1ccc([N+](=O)[O-])cc1,IC50,[3],15.2 µM
O=[N+]([O-])c1ccc(N=Nc2ccc(O)c3ccccc23)c([N+](=O)[O-])c1,Ki,[5],15 µM
same,Ki,[6],15 µM
IVERMECTIN,Ki,[5],79 µM
same,Ki,[6],79 µM
